Measurements published in patent publication US10766857B2, “Compound having BLT inhibitory activity and composition, for preventing or treating inflammatory diseases, comprising same as active ingredient” (DONGGUK UNIVERSITY INDUSTRY-ACADEMIC COOPERATION FOUNDATION, priority 2015, dated 2020).

Legend:
BLT1 = molecular target: T1, BLT1 (Homo sapiens, UniProt Q15722); assay: LTB4-induced chemotactic motility, Transwell, CHO-BLT1 cells; assay type: cell-based; conditions: LTB4 10 nM, serum-free, read-out: IC50 of chemotactic motility inhibition
T1 construct: expressed in transfected cells; host or cells: CHO cells stably expressing BLT1 (CHO-BLT1)
Protocol: (§1) Chemotactic motility was analyzed using a Transwell chamber including a polycarbonate filter (8-μm pore size, Corning Costar) with a 6.5-mm diameter. Specifically, the lower surface of the filter was coated with 10 μg/mL fibronectin in a serum-free RPMI 1640 medium at 37° C. for 1 hour. The experiment was performed by placing the filter dried and coated with RPMI 1640 media containing various amounts of LTB4 in the lower wells of the Transwell chamber, and loading CHO cells stably expressing BLT1 and BLT2 into the upper wells containing serum-free RPMI 1640 media finally at 2×10^4 cells/100 μL. To evaluate the effect of inhibitors, the cells were pre-treated with each inhibitor for 30 minutes before dispensing. After the cells were cultured at 37° C. in 5% CO2 for 3 hours, the filters were fixed with methanol for 3 minutes, and stained with hematoxylin and eosin for 10 minutes. In the experiment, the cells were BLT2-expressing cells (CHO-BLT2 cells) and BLT1-expressing cells (CHO-BLT1 cells), and LY255283 and U75302 were used as positive controls for each type of the cells, and BLT2 ligand LTB4, (300 nM), BLT1 ligand LTB4 (10 nM), and lysophosphatidic acid (LPA; 100 nM) were used as comparative controls. The chemotactic motility was quantitatively analyzed by counting the cells on the lower side of the filter under an optical microscope (magnification, 200×). For each analysis, 6 fields were subjected to counting, each sample was analyzed twice, and the analysis was repeated three times.

BLT2 [1] = molecular target: T2, BLT2 (Homo sapiens, UniProt Q9NPC1); assay: LTB4-induced chemotactic motility, Transwell, CHO-BLT2 cells; assay type: cell-based; conditions: LTB4 300 nM, serum-free, read-out: IC50 of chemotactic motility inhibition
T2 construct: HA; expressed in transfected cells
T2 sequence (Q9NPC1 with tags, fused parts or gaps): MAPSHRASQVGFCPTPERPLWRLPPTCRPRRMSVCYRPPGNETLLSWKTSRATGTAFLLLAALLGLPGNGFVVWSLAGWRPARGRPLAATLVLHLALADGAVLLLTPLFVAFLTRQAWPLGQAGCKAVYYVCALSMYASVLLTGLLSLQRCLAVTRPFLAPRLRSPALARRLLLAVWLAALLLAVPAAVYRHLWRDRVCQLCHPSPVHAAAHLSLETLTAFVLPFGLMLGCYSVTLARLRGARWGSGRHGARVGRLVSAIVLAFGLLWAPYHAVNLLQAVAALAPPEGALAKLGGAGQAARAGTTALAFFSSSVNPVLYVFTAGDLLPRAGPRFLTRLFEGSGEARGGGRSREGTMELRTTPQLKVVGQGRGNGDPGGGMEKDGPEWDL
Protocol: as §1

BLT2 [2] = molecular target: T2, BLT2; assay: [3H]LTB4 and BLT2 binding inhibition, CHO-BLT2 cell membrane proteins; conditions: [3H]LTB4 5 nM
Protocol: The inhibition of LTB4 and BLT2 binding (ligand binding affinity) was analyzed using radioactive tritium (^3H)-labeled LTB4 ([^3H]LTB4, ARC; specific activity 160.0 Ci/mmol). After 2×10^6 of CHO-BLT2 cells were plated into a 100-mm culture dish and cultured for 48 hours, an experimental method was carried out as follows: Collected cells were treated using a homogenizer a total of five times for 1 minute each to separate proteins of the cell membrane. Afterward, the cells were subjected to centrifugation at 4° C. and 45,000 rpm for 40 minutes to only collect the proteins of the cell membrane, and thereby, a protein concentration of 40 μg/45 μL was quantified. When a BLT2-containing cell membrane proteins which were quantified in the same manner was treated with the same amount of [^3H]LTB4 (5 nM), and then a different concentration (10^−9, 10^−8, 10^−7, 10^−6 or 10^−5 M) of a compound, a degree of inhibiting the tritium-labeled LTB4 and BLT2 binding was measured using a Hidex 300sL liquid scintillation counter.

[3] = system: asthma-induced mice (OVA+LPS); assay: OVA+LPS-induced severe asthma mice: AHR and cell influx; assay type: in vivo; conditions: for AHR reduced: airway constrictor 50 mg/ml
Description: Mast cells play a pivotal role in the initial reaction to asthma, and when an allergen enters the body from the outside through an airway, the mast cells are activated, thereby secreting various cytokines (interleukin-4 and interleukin-13). Due to the cytokines, the influx of inflammatory cells, the generation of mucus and the airway contraction occur. The inventors used 7-week-old (18 to 20 g) female BALB/c mice provided by Orient (Seoungnam, Korea) for the experiment to confirm the antiasthma effect, and then the asthma was induced in the mice. On the first and 14th days, 2.5 mg of an adjuvant, aluminum hydroxide gel (alum; Pierce, Rockford, Ill.) was included in […] of ovalbumin (OVA) to intraperitoneally sensitize female […] mice. On the 21st, 22nd and 23rd days of two initial sensitizations, 1% OVA was sprayed into the mice using an ultrasonic nebulizer. The compound of the present invention (LMT-696; 5 mg/kg), LY255283 (5 mg/kg, Cayman) or DMSO was intraperitoneally injected at the 1 hour before the 1% OVA spraying. On the 24th day of the initial sensitization, airway hyperresponsiveness (AHR) was detected, and on the 25th day, the mice were dissected to observe asthma phenotypes, for example, inflammatory cytokine IL-4 expression and the influx of inflammatory cells (neutrophils). In the case of lipopolysaccharide (LPS)-induced severe asthma animal models, on the 0, 1st, 2nd and 7th days, 75 μg of OVA and 1 mg of LPS were intranasally injected into Balb/c mice for sensitization. On the 14th, 15th, 21th and 22th days, 50 μg of OVA was injected into the nose for a challenge. The compound of the present invention (LMT-1013) (1, 3, 10 or 30 mg/kg), montelukast (10 mg/kg, DRS) or a control buffer (10% DMA, 5% Tween 80, 85% brine) were treated one hour before the challenge by injecting 50 μg of OVA into the nose. On the 23rd day of the initial sensitization, AHR was detected, and on the 24th day, the mice were dissected to observe a severe asthma phenotype, for example, the influx of the inflammatory cells (neutrophils). In addition, the AHR detection was performed after an airway constrictor, methacholine (6.25 to 50 mg/ml depending on conditions), was administered to the mice. The administration of the airway constrictor was performed by spraying through an inlet of the chamber using an ultrasonic nebulizer for 3 minutes. The AHR was analyzed using an enhanced pause as the indicator of the asthma phenomenon. Bronchoalveolar lavage fluid cell counts were quantified by counting cells under an optical microscope (magnification, 200×). In each analysis, 4 fields were subjected to counting, each sample was analyzed twice, and the analysis was repeated three times.

[4] = molecular target: T3, BLT2-expressing cells (CHO-BLT2 cells) (Homo sapiens, UniProt Q9NPC1); assay: MTT cell growth of LTB4-stimulated BLT2-expressing cells; assay type: cell-based; conditions: pre-treated at 10 μM, LTB4 300 nM
T3 construct: HA; expressed in transfected cells
T3 sequence (Q9NPC1 with tags, fused parts or gaps): T2 sequence (Q9NPC1 with tags, fused parts or gaps)
Protocol: Cell viability according to treatment of the compounds prepared in the examples were measured by a 3-(4,5-dimethylthiazol-2-yl)-2,5-diphenyltetrazolium bromide (MTT) method.
More specifically, 1×10^4 each of the BLT2-nonexpressing cells (CHO-pcDNA3.1 cells) and BLT2-expressing cells (CHO-BLT2 cells), which were prepared in Experimental Example 1, were dispensed in a […], and cultured for 24 hours. Afterward, the culture medium was removed, a serum-free RPMI medium was added, and after two hours, the cells were pre-treated with each of the compound prepared in one of the examples (10 μM), 10 μM DMSO (compound solvent) as a control, and 10 μM 1-[5-ethyl-2-hydroxy-4-[[6-methyl-6-(1H-tetrazol-5-yl)heptyl]oxy]phenyl]-ethanone (LY255283; Cayman) as a positive control for 1 hour. Subsequently, after treatment of LTB4 (300 nM), the cells were cultured for 24 hours. 20 μL of an MTT solution (5 mg/mL, Sigma-Aldrich) was added to each well, the cells were cultured in a humid CO2 incubator at 37° C. for 4 hours, a supernatant was removed, and 200 μL of DMSO was added to each well to dissolve insoluble violet formazan crystals. Absorbance was measured using a microplate reader (Molecular Devices, Sunnyvale, Calif.) at 550 nm, and the measurement was repeated three times.

T1 sequence (Q15722 whole entry, species assumed): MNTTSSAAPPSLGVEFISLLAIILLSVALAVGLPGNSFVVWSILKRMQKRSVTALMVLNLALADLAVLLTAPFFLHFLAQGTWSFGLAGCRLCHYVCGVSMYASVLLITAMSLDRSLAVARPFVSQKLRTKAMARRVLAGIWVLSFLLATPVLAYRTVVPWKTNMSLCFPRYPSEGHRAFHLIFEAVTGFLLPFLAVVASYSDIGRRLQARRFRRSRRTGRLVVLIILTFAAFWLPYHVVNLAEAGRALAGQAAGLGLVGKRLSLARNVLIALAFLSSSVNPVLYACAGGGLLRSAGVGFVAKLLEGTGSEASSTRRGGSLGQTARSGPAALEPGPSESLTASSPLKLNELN

IC50 (BLT1): ≥ 10000 nM
IC50 (BLT2 [1]): 62.4 nM
IC50 (BLT2 [2]): 30.7 nM
cell growth compared with the control DMSO [4]: 96.3%
SMILES: CCCCC(=O)N(CC#Cc1ccc(C(=O)O)cc1)c1ccccc1 [LMT-1013, 4-(3-(N-phenylpentaneamido)prop-1-yn-1-yl)benzoic acid]
neutrophils reduced ([3]; 1 mg/kg, FIGS. 13A-13C): 51.6%
neutrophils reduced ([3]; 1 mg/kg, FIGS. 14A-14B): 42.2%
AHR reduced ([3]; 1 mg/kg): 48.6%
neutrophils reduced ([3]; 3 mg/kg, FIGS. 14A-14B): 48.8%
AHR reduced ([3]; 3 mg/kg): 52.9%
neutrophils reduced ([3]; 10 mg/kg, FIGS. 13A-13C): 90.3%
neutrophils reduced ([3]; 10 mg/kg, FIGS. 14A-14B): 71.8%
AHR reduced ([3]; 10 mg/kg): 83.2%
neutrophils reduced ([3]; 30 mg/kg, FIGS. 14A-14B): 88.3%
AHR reduced ([3]; 30 mg/kg): 87.3%
total cells entering the abdominal cavity of the mice ([3]; 1, 3, 10 and 30 mg/kg, FIGS. 14A-14B): reduced
total cells entering the abdominal cavity of the mice ([3]; 1 and 10 mg/kg, FIGS. 13A-13C): reduced
